Test results: article PMC8880564, “Design, Synthesis, and Biological Evaluation of a Novel VEGFR-2 Inhibitor Based on a 1,2,5-Oxadiazole-2-Oxide Scaffold with MAPK Signaling Pathway Inhibition” (Pharmaceuticals, 2022)
Read-outs that look alike come from different tables or passages of the source.

Legend:
Assay type in all cases: cell-based
A498 = test: NCI-60 one-dose SRB screening; settings: Homo sapiens, A498, Renal Cancer, 10 µM one dose, 48 h, read-out: growth percentage
DU-145 = test: NCI-60 one-dose SRB screening; settings: Homo sapiens, DU-145, Prostate Cancer, 10 µM one dose, 48 h, read-out: growth percentage
HCT-15 = test: NCI-60 one-dose SRB screening; settings: Homo sapiens, HCT-15, Colon Cancer, 10 µM one dose, 48 h, read-out: growth percentage
HS 578T = test: NCI-60 one-dose SRB screening; settings: Homo sapiens, Breast Cancer, 10 µM one dose, 48 h, read-out: growth percentage
KM12 = test: NCI-60 one-dose SRB screening; settings: Homo sapiens, KM12, Colon Cancer, 10 µM one dose, 48 h, read-out: growth percentage
LOX IMVI = test: NCI-60 one-dose SRB screening; settings: Homo sapiens, Melanoma, 10 µM one dose, 48 h, read-out: growth percentage
MCF7 = test: NCI-60 one-dose SRB screening; settings: Homo sapiens, MCF7, Breast Cancer, 10 µM one dose, 48 h, read-out: growth percentage
MOLT-4 = test: NCI-60 one-dose SRB screening; settings: Homo sapiens, MOLT-4, Leukemia, 10 µM one dose, 48 h, read-out: growth percentage
PC-3 = test: NCI-60 one-dose SRB screening; settings: Homo sapiens, PC-3, Prostate Cancer, 10 µM one dose, 48 h, read-out: growth percentage
SF-268 = test: NCI-60 one-dose SRB screening; settings: Homo sapiens, SF-268, CNS Cancer, 10 µM one dose, 48 h, read-out: growth percentage
SF-539 = test: NCI-60 one-dose SRB screening; settings: Homo sapiens, SF-539, CNS Cancer, 10 µM one dose, 48 h, read-out: growth percentage
SK-MEL-5 = test: NCI-60 one-dose SRB screening; settings: Homo sapiens, SK-MEL-5, Melanoma, 10 µM one dose, 48 h, read-out: growth percentage
SR = test: NCI-60 one-dose SRB screening; settings: Homo sapiens, Leukemia, 10 µM one dose, 48 h, read-out: growth percentage
T-47D = test: NCI-60 one-dose SRB screening; settings: Homo sapiens, T47D, Breast Cancer, 10 µM one dose, 48 h, read-out: growth percentage
UACC-62 = test: NCI-60 one-dose SRB screening; settings: Homo sapiens, UACC-62, Melanoma, 10 µM one dose, 48 h, read-out: growth percentage
[1] = test system: NCI-59 human cancer cell lines; test: NCI-60 one-dose SRB screening, full panel and subpanels; settings: Homo sapiens; for activity at 10 µM: mean over the full panel, 10 µM one dose, 48 h, SRB, read-out: growth percentage, Mean
Procedure: The structures of the synthesized compounds 6a–h, 12a–c, 11, 13a–c, and 14a–c were submitted to the National Cancer Institute’s Developmental Therapeutics Program (NCI-DTP), and all of them were selected for preliminary in vitro anticancer activity screening against NCI-59 human cancer cell lines at a concentration of 10 µM, using the sulforhodamine B (SRB) assay to determine the growth percentage and cell viability.
The in vitro NCI-60 cell line screening assay was conducted at the National Cancer Institute (NCI), Bethesda, USA against 59 cancer cell lines representing 9 types of cancers, as reported earlier. Briefly, the human cancer cell lines were grown in RPMI 1640 medium containing 5% fetal bovine serum and 2 mM L-glutamine and inoculated into 96-well microtiter plates in 100 μL (5000 to 40,000 cells/well). Then, the plates were incubated at 37 °C, 5% CO2, 95% air, and 100% relative humidity for 24 h. After that, two plates of each cell line were fixed in situ with TCA, to represent cell population at time zero (Tz). The tested compounds were dissolved in DMSO at 400-fold and added so that the final concentration became 10 μM. The plates were then incubated for an additional 48 h followed by the addition of cold TCA to terminate the assay in case of adherent cells. Then, the cells were fixed in situ by cold 50% (w/v) TCA (50 μL; final concentration, 10% TCA) and incubated for 1 h at 4 °C. After discarding the supernatant, the plates were washed 5 times with tap water and air dried. Sulforhodamine B (SRB) solution (100 μL) at 0.4% (w/v) in 1% HOAc was added to each well, and plates were incubated for 10 min. at rt. Then, washing with 1% acetic acid was conducted 5 times to remove the unbound dye followed by air drying. After that, 10 mM trizma base was added to solubilize the bound stain, and the absorbance was read on an automated plate reader at a wavelength of 515 nm. On the other hand, the methodology for suspension cells was the same except that 50 μL of 80% TCA (final concentration, 16% TCA) was gently added to terminate the assay by fixing settled cells at the bottom of the wells. Percentage growth inhibition (GI%) was calculated as follows:
Growth percentage=Ti (test growth in the presence of compound at 10 µM )−Tz (time zero)/C (control growth)−Tz (time zero)×100 for Ti ≥ Tz;
Growth percentage=Ti (test growth in the presence of compound at 10 µM )−Tz (time zero)/Tz (time zero)×100 for Ti < Tz.
where values of 100, 40, 0, −40, and −100 mean no GI, 60% GI, no net G, 40% lethality, and all cells are dead, respectively.
Data are expressed as a one-dose mean graph of growth percentages including the mean, delta, and range.

[2] = full NCI-59 panel, read-out: mean growth inhibition % (MGI%, GI%)

Row | Structure (SMILES) | activity at 10 µM (A498) [%] | activity at 10 µM (DU-145) [%] | activity at 10 µM (HCT-15) [%] | activity at 10 µM (HS 578T) [%] | activity at 10 µM (KM12) [%] | activity at 10 µM (LOX IMVI) [%] | activity at 10 µM (MCF7) [%] | activity at 10 µM (MOLT-4) [%] | activity at 10 µM (PC-3) [%] | activity at 10 µM (SF-268) [%] | activity at 10 µM (SF-539) [%] | activity at 10 µM (SK-MEL-5) [%] | activity at 10 µM (SR) [%] | activity at 10 µM (T-47D) [%] | activity at 10 µM (UACC-62) [%] | activity at 10 µM [1] [%] | other results
1 | Cc1nc(Nc2ccc(OCc3c(-c4ccccc4)no[n+]3[O-])cc2)c2c(C)nn(-c3ccc(Br)cc3)c2n1 [6h, 3-((4-((1-(4-bromophenyl)-3,6-dimethyl-1H-pyrazolo[3,4-d]pyrimidin-4-yl)amino)phenoxy)methyl)-4-phenyl-1,2,5-oxadiazole 2-oxide] | 110 | 102 | 79 | 94.8 | 97.7 | 98.9 | 87.4 | 87.6 | 67.4 | 94.7 | 96.1 | 91.5 | 72 | 81.4 | 80.2 | 95.4 | inhibition at 10 µM [1, 2]: 1.58 to 4.57%
2 | Cc1nn(-c2ccccc2)c2nc(C(F)(F)F)nc(Nc3ccc(NCc4c(-c5ccccc5)no[n+]4[O-])cc3)c12 [12a, 3-(((4-((3-methyl-1-phenyl-6-(trifluoromethyl)-1H-pyrazolo[3,4-d]pyrimidin-4-yl)amino)phenyl)amino)methyl)-4-phenyl-1,2,5-oxadiazole 2-oxide] | 94.4 | 82.2 | 42 | 77.9 | 56.7 | 58 | 58.5 | 56.4 | 45.6 | 68.6 | 78.1 | 70.3 | 58.7 | 80.5 | 64.9 | 76.8 | 
3 | [O-][n+]1onc(-c2ccccc2)c1CNc1ccc(Nc2nc(C(F)(F)F)nc3c2cnn3-c2ccc(Br)cc2)cc1 [12b, 3-(((4-((1-(4-bromophenyl)-6-(trifluoromethyl)-1H-pyrazolo[3,4-d]pyrimidin-4-yl)amino)phenyl)amino)methyl)-4-phenyl-1,2,5-oxadiazole 2-oxide] | 97.4 | 70.8 | 38.1 | 77.6 | 41.2 | 27.9 | 38.8 | 47 | 48.2 | 65 | 68.3 | 86 | 43.5 | 68.8 | 64.9 | 66.8 | inhibition at 10 µM ([1]; CNS cancer cell lines, read-out: growth-inhibitory % activity, up to): ≤ 45%; inhibition at 10 µM ([1]; breast cancer cells, read-out: growth-inhibitory % activity, up to): ≤ 61%; inhibition at 10 µM ([1]; colon cancer cell lines, read-out: growth-inhibitory % activity, up to): ≤ 62%; inhibition at 10 µM ([1]; leukemia cell lines, read-out: growth-inhibitory % activity, up to): ≤ 77%; inhibition at 10 µM ([1]; melanoma cell lines, read-out: growth-inhibitory % activity, up to): ≤ 72%; inhibition at 10 µM ([1]; non-small cell lung cancer cell lines, read-out: growth-inhibitory % activity, up to): ≤ 64%; inhibition at 10 µM ([1]; ovarian cancer cell lines, read-out: growth-inhibitory % activity, up to): ≤ 40%; inhibition at 10 µM ([1]; prostate cancer cell lines, read-out: growth-inhibitory % activity, up to): ≤ 52%; inhibition at 10 µM ([1]; renal cancer cell lines, read-out: growth-inhibitory % activity, up to): ≤ 69%
4 | Cc1nn(-c2ccc(Br)cc2)c2nc(C(F)(F)F)nc(Nc3ccc(NCc4c(-c5ccccc5)no[n+]4[O-])cc3)c12 [12c, 3-(((4-((1-(4-bromophenyl)-3-methyl-6-(trifluoromethyl)-1H-pyrazolo[3,4-d]pyrimidin-4-yl)amino)phenyl)amino)methyl)-4-phenyl-1,2,5-oxadiazole 2-oxide] | 117 | 84.8 | 34.6 | 83.2 | 74.3 | 48.5 | 68.2 | 60.3 | 47 | 73.2 | 59.4 | 61.7 | 55.5 | 85.6 | 62.5 | 74.8 | 
5 | O=c1[nH]c(CCl)nc2c1cnn2-c1ccccc1 [13a] | 77.9 | 98.6 | 99.9 | 111 | 101 | 103 | 79.5 | 104 | 105 | 99.9 | 97.1 | 107 | 87.1 | 95.2 | 96.2 | 94.2 | 
6 | Cc1nn(-c2ccccc2)c2nc(CCl)[nH]c(=O)c12 [13b] | 4.55 | 83.6 | 90.6 | 120 | 53.3 | 101 | 16.4 | 79.6 | 102 | 106 | 36.9 | 110 | 39.8 | 66 | 97.9 | 82.8 | 
7 | O=c1[nH]c(CNc2ccc(NCc3c(-c4ccccc4)no[n+]3[O-])cc2)nc2c1cnn2-c1ccccc1 [14a, 3-(((4-(((4-oxo-1-phenyl-4,5-dihydro-1H-pyrazolo[3,4-d]pyrimidin-6-yl)methyl)amino)phenyl)amino)methyl)-4-phenyl-1,2,5-oxadiazole 2-oxide] | 86 | 74.6 | 71.2 | 85.8 | 73.3 | 85.5 | 50 | 44 | 63.3 | 73.5 | 92.6 | 85.3 | 45.7 | 42.5 | 60.6 | 72.1 | inhibition at 10 µM [1, 2]: 27.9%
